Series [1] is described as follows: Evaluation of gelation of lipid peptides with pure water. The series is classed as physicochemical. The procedure:
Each of the lipid peptides synthesized in Examples 1, 6, 7, 8, and 10 was placed in a sample tube. Pure water (without metals and ions) was added so that a solution would have a lipid peptide concentration of 0.25 or 0.5% (w/v) (w means mass (g), and v means volume (mL)). The mixture was heated at 90° C. or more to dissolve the lipid peptide, and then allowed to cool.

The nature of series [2]: Evaluation of gelation of lipid peptides with phosphate buffer. The series is classed as physicochemical. The conditions noted are these: for Gel formation: acidic region (pH=2.6). As for the experimental part: Each of the lipid peptides synthesized in Examples 3 to 10 and Example 14 was placed in a sample tube. Each of three phosphate buffers (PBS) (pH=2.6, 7.4, or 10) was added so that a solution would have a lipid peptide concentration of 0.25 or 0.5% (w/v) (conditions A to F). Then, the mixture was heated at 90° C. or more to dissolve the lipid peptide, and then allowed to cool.

Series [3] in a line: Evaluation of gelation of N-palmitoyl-Gly-His.TFA salt with various solutions. The series is classed as physicochemical. The procedure: Each N-palmitoyl-Gly-His trifluoroacetate synthesized in Examples 1 to 3 was placed in a screw tube (Maruemu No. 1, manufactured by Maruemu Corp.). Each of various solutions shown in Table 3 was added so as to have an N-palmitoyl-Gly-His.TFA salt (also called Pal-GH (TFA)) concentration of 0.5 or 1% (w/v). The mixture was heated at 100° C. with a constant temperature heat block (manufactured by Nippon Genetics Co., Ltd.), and then allowed at room temperature.

Series [4] in a line: Gel sheet formation and stability of gel on water immersion. Format: physicochemical. The conditions noted are these: 72 hours. The procedure:
Into a screw tube (Maruemu No. 3, manufactured by Maruemu Corp.), 3 mg of N-palmitoyl-Gly-His (TFA) prepared in Example 1 was placed, and 0.6 ml of Japanese Pharmacopoeia purified water (Kyoei Pharmaceutical Industries, Ltd.) was added into the screw tube so as to have a concentration of 0.5% (w/v). The whole was heated at 105° C. for 5 minutes, and then allowed to stand at room temperature to prepare a gel of 0.5% N-palmitoyl-Gly-His (TFA).
To the gel, 2 ml of Japanese Pharmacopoeia purified water (Kyoei Pharmaceutical Industries, Ltd.) was further added and sheet formation was observed from a wide view for 72 hours.
Into a screw tube (Maruemu No. 3, manufactured by Maruemu Corp.), 9.1 mg of N-palmitoyl-Gly-His.TFA salt prepared in Example 1 was placed, and 0.91 ml of Japanese Pharmacopoeia purified water (Kyoei Pharmaceutical Industries, Ltd.) and 0.91 ml of glycerin (Junsei Chemical Co., Ltd.) were added into the screw tube so as to have a concentration of 0.5% (w/v). The whole was heated at 105° C. for 5 minutes, and then allowed to stand at room temperature to prepare a gel of 0.5% N-palmitoyl-Gly-His.TFA salt in a glycerin solution.
Into the gel, 2 ml of Japanese Pharmacopoeia purified water (Kyoei Pharmaceutical Industries, Ltd.) was further added and sheet formation was observed from a wide view for 72 hours.
Into a screw tube (Maruemu No. 3, manufactured by Maruemu Corp.), 4.6 mg of N-palmitoyl-Gly-His.TFA salt prepared in Example 1 was placed, and 0.46 ml of glycerin was added into the screw tube so as to have a concentration of 1% (w/v). The whole was heated at 105° C. for 5 minutes, and then allowed to stand at room temperature to prepare a gel of 1% N-palmitoyl-Gly-His.TFA salt in glycerin.
(§1) Each of the 50.4 mg of N-palmitoyl-Gly-His.TFA salt prepared in Examples 1 to 3 was placed into a screw tube (Maruemu No. 7, manufactured by Maruemu Corp.). Into the screw tube, 1 ml of polyethylene glycol 400 (Wako Pure Chemical Industries, Ltd.), 1.5 ml of ethanol, and 8 ml of 70% glycerin (Junsei Chemical Co.) in water were added so as to have an N-palmitoyl-Gly-His TFA salt concentration of 0.5% (w/v). The mixture was heated with a dry bath incubator (manufactured by First Gene) (105° C., for 8 minutes), and then allowed to stand at room temperature to form a gel.
Into the gel, 20 ml of Japanese Pharmacopoeia purified water (Kyoei Pharmaceutical Industries, Ltd.) was further added and whether sheet formation occurred or not was observed from a wide view for 72 hours.
(§2) Each of the 52.5 mg of N-palmitoyl-Gly-His.TFA salt prepared in Examples 1 to 3 was added into a screw tube (Maruemu No. 7, manufactured by Maruemu Corp.). Into the screw tube, 0.5 ml of polyethylene glycol 400 (Wako Pure Chemical Industries, Ltd.), 1 ml of ethanol, and 8 ml of 70% glycerin (Junsei Chemical Co.) in water were added so as to have an N-palmitoyl-Gly-His.TFA salt concentration of 0.5% (w/v). The mixture was heated with a dry bath incubator (manufactured by First Gene) (105° C., for 8 minutes), and then allowed to stand at room temperature to form a gel.
(§3) Each of the 50.2 mg of palmitoyl-Gly-His.TFA salt prepared in Examples 1 to 3 was placed into a screw tube (Maruemu No. 7, manufactured by Maruemu Corp.) together with 104.7 mg of indomethacin and 220 mg of I-menthol. Into the screw tube, 0.5 ml of polyethylene glycol 400 (Wako Pure Chemical Industries, Ltd.), 1.5 ml of ethanol, 8 ml of 70% glycerin (Junsei Chemical Co., Ltd.) in water were added so as to have an N-palmitoyl-Gly-His.TFA salt concentration of 0.5% (w/v). […] The texture of the gel was smooth and cool.
After ascertainment of the gel formation, the gel was allowed to stand at room temperature for 45 days. Then, 20 ml of Japanese Pharmacopoeia purified water (Kyoei Pharmaceutical Industries, Ltd.) was added and sheet formation was observed from a wide view for 72 hours. […]

The nature of series [5]: Gel formation in glycerin, polyethylene glycol 400 and ethanol medium. Format: physicochemical. The note with it: 8 ml 70% glycerin in water. As for the experimental part: as §1, §2, §3
Series [6] in a line: Usable mediums: solubility and gel formation, conventional art vs palmitoyl-Gly-His. The series is classed as physicochemical.
For series [7] the following is noted: cited from earlier work.

“Also recorded” adds a separate entry of the source. Residues, ends and D or L forms follow the SMILES beside them.

Consider `CCCCCCCCCCCCCCCC(=O)NCC(=O)N[C@@H](Cc1c[nH]cn1)C(=O)O.O=C(O)C(F)(F)F` [Example 1, N-palmitoyl-Gly-His.TFA salt] (HELM PEPTIDE1{[CCCCCCCCCCCCCCCC(=O)[*:2]].G.H}$$$$V2.0), for which the Gelation entry is recorded as “◯” in series [1] (lipid peptide 0.25% (w/v)); “◯” in series [1] (lipid peptide 0.50% (w/v)); “◯” in series [2] (condition A: phosphate buffer pH = 2.6, 0.5% (w/v)); “◯” in series [2] (condition B: phosphate buffer pH = 2.6, 0.25% (w/v)); “◯” in series [2] (condition C: phosphate buffer pH-7.4, 0.5% (w/v)); “◯” in series [2] (condition D: phosphate buffer pH-7.4, 0.25% (w/v)). In addition, the Gelation entry in series [2] (condition E: phosphate buffer pH = 10, 0.5% (w/v)) is reported as “◯”. The “Gel formation” value in series [2] (concentration 0.25%) was “formed gels”; in series [2] (concentration 0.5%), “formed gels”; in series [5] (0.5% (w/v) with 104.7 mg indomethacin and 220 mg l-menthol, 0.5 ml polyethylene glycol 400, 1.5 ml ethanol), “pale yellow gel”; in series [5] (0.5% (w/v), 0.5 ml polyethylene glycol 400, 1 ml ethanol), “form a gel”; in series [5] (0.5% (w/v), 1 ml polyethylene glycol 400, 1.5 ml ethanol) it was “form a gel”. Besides, the Gel state result is on record as “White gel” in series [3] (50% 1,3-butanediol aqueous solution, 0.5% (w/v)); “White gel” in series [3] (50% glycerin aqueous solution, 0.5% (w/v)); “White gel” in series [3] (50% liquid paraffin aqueous solution, 0.5% (w/v)); “White gel” in series [3] (50% polyethylene glycol 400 aqueous solution, 0.5% (w/v)); “White gel” in series [3] (50% propylene glycol aqueous solution, 0.5% (w/v)); “Transparent gel” in series [3] (70% glycerin aqueous solution, 0.5% (w/v)). Moreover, the Gel state result in series [3] (Glycerin, 1.0% (w/v)) is listed as “Transparent gel”; in series [3] (Polyethylene glycol 400, 1.0% (w/v)), “Transparent gel”. In addition, the “Gel behaviour on immersion in purified water, sheet formation” value was “not dissolved during water immersion and the formation of a sheet-shaped gel was observed” in series [4] (0.5% (w/v) gel in 0.5 ml polyethylene glycol 400, 1 ml ethanol, 8 ml 70% glycerin, 20 ml water added); “not dissolved during water immersion and the formation of a sheet-shaped gel was observed” in series [4] (0.5% (w/v) gel in 1 ml polyethylene glycol 400, 1.5 ml ethanol, 8 ml 70% glycerin, 20 ml water added); “not dissolved during water immersion and the formation of a sheet-shaped gel was observed” in series [4] (0.5% (w/v) gel in glycerin solution (0.91 ml water + 0.91 ml glycerin), 2 ml water added); “not dissolved during water immersion and the formation of a sheet-shaped gel was observed; also recorded: did not dissolve during water immersion and the formation of a sheet-shaped gel was observed” in series [4] (0.5% (w/v) gel in purified water, 2 ml water added); “not dissolved during water immersion and the formation of a sheet-shaped gel was observed” in series [4] (0.5% (w/v) gel including indomethacin and l-menthol, after 45 days at room temperature, 20 ml water added); “not dissolved during water immersion and the formation of a sheet-shaped gel was observed” in series [4] (1% (w/v) gel in glycerin, 2 ml water added).
As for `CCCCCCCCCCCCCCCC(=O)NCC(=O)NCC(=O)NCC(=O)N[C@@H](Cc1c[nH]cn1)C(=O)O` [palmitoyl-Gly-Gly-Gly-His] (HELM PEPTIDE1{[CCCCCCCCCCCCCCCC(=O)[*:2]].G.G.G.H}$$$$V2.0), the Solubility in medium entry in series [6] (50 mM acetate buffer with pH 5, even when heated) was “insoluble”; in series [6] (50 mM citrate buffer with pH 5, even when heated) it was “insoluble”. Besides, in series [6] (ethanol/water mixed solvent having an ethanol concentration of 80% or more), the Gel formation result is given as “does not form a gel”. In series [7] (Non-patent Document 10), the lowest gelation concentration is 0.03 wt %.
For the compound `CCCCCCCCCCCCCCCC(=O)NCC(=O)NCC(=O)N[C@@H](Cc1c[nH]cn1)C(=O)O` [palmitoyl-Gly-Gly-His] (HELM PEPTIDE1{[CCCCCCCCCCCCCCCC(=O)[*:2]].G.G.H}$$$$V2.0), in series [7] (background art), the gelation properties result is given as “has gelation properties”.
